Assay results: article PMC10205807, “Cross-species comparison in nonclinical pharmacokinetics of lenvatinib by a simple HPLC with ultraviolet detection” (Scientific Reports, 2023)

What was measured:
[1] = phase-1 clinical trial, oral PK in humans; assay type: in vivo; conditions: human, plasma; calculated from AUCoral at 9 mg oral dose in a phase-1 study and fp 0.0172; read-out: observed CLint in humans (converted)
[2] = Cross-species PK summary (mice, rats, dogs, monkeys); assay type: in vivo, and monkeys; conditions: for bioavailability: rat, rats
Description: (§1) PK parameters of lenvatinib were estimated by model independent analysis using a WinNonlin program (Version 4.1, Pharsight Corporation, Mountain View, CA). The time to reach the maximum plasma concentration (Tmax) and the maximum plasma concentration (Cmax) values were obtained directly from the plasma concentration data. Terminal half-life (T1/2) was calculated by ln2/ke, where ke is the slope of the regression line that fits the portion of the terminal phase (at least three time points) in the log-linear concentration–time curve. AUC0–t and AUMC0–t, the area under the concentration–time curves and the area under the first moment curve, from time = zero to time = t, respectively, were calculated using the lenvatinib concentrations in plasma by the linear/log trapezoidal method. AUC0–inf was calculated by AUC0–t + Ct/ke, and AUMC0–inf was AUMC0–t + Ct × t/ke + Ct/(ke)^2, where Ct is the last measurable concentration at time = t. The plasma concentration at time zero for the intravenous dose was extrapolated, while zero was used for the oral doses. Mean residence time (MRT), total plasma clearance (CLtot) and the volume of distribution at steady state (Vdss) were calculated by AUMC0–inf/AUC0–inf, Dose/AUC0–inf and CLtot × MRT, respectively. Oral bioavailability (F) was estimated by comparing dose-normalized AUC0–inf after oral (AUC0–inf.po) and intravenous (AUC0–inf.iv) administration as follows: F (%) = (AUC0–inf.po/AUC0–inf.iv) × 100.
One of the typical approaches for predicting human PK from animal PK is empirical allometric scaling. As the CLtot of lenvatinib was relatively low and Vdss of lenvatinib was low to medium, thus it is theoretically preferable to correct by fp for both parameters. The CLtot divided by fp (CLtot/fp) or Vdss divided by fp (Vdss/fp) were plotted against body weight (BW) by log–log scale, and a linear regression was performed to estimate a slope and intercept for linear regression. The BW used in the calculation was 0.02, 0.2, 10, 5, and 70 kg for mice, rats, dogs, monkeys, and humans, respectively. CLtot and Vdss of lenvatinib in humans were predicted by using the regression line and the BW of humans. As no PK data of lenvatinib are available for CLtot and Vdss, which can be estimated only from intravenous administration PK study in humans, it is not possible to assess predictability of the allometric scaling for these two parameters of lenvatinib in humans. However, it is possible to predict exposure of lenvatinib after oral administration (AUCoral) in humans from the allometry scaling of hepatic intrinsic clearance (CLint). As lenvatinib is mainly cleared by the liver, AUCoral is estimated by Fa × Fg × Dose/(fp × CLint)[9], where Fa, Fg, fp, and CLint are absorption at the gastrointestinal (GI) tract, metabolic availability at the GI, unbound fraction in plasma, and hepatic intrinsic clearance, respectively. The CLint is thus estimated by Fa × Fg × Dose/(fp × AUCoral) in all the animal species including humans just from PK data from oral administration. The allometric scaling approach was applied for CLint in mice, rats, dogs, and monkeys. The logarithmic plot of CLint and BW was performed for a linear regression and a regression line [log (CLint) = slope × log (BW) + intercept], which was derived by logarithmic transformation of the equation CLint = a × BW^b was obtained. The CLint predicted from the allometric scaling was compared to the observed CLint after oral administration of lenvatinib at 9 mg in humans.

[3] = PK study in rats (intravenous and oral); assay type: in vivo; conditions: for Tmax: median (range)
Description: Sprague–Dawley male rats were purchased from Charles River Japan, Inc., and were used for the PK study after 8 days of an acclimatization period. Rats were 8 weeks old when lenvatinib was dosed and the body weight range was 0.28–0.31 (kg). Rats were fasted a day before the PK study and feeding was resumed 4 h postdose. Dosing solution of lenvatinib used in the rat PK study was the same as that in the mice PK study, and the dose levels were 3 mg/kg for the intravenous administration via femoral vein, and 3, 10, and 30 mg/kg for the oral administration by gastric gavage (n = 4/dose). Approximately 0.25 mL of blood samples were obtained from the jugular vein using heparinized syringes at predose, and at 5, 15 and 30 min, and 1, 2, 4, 6, 8, 12 and 24 h postdose. Plasma sample preparation and sample storage were the same as those in the mice PK study.
as §1

plasma protein [4] = experiment: plasma unbound fraction, humans; assay type: in vitro ADME; conditions: human
plasma protein [5] = experiment: in vitro plasma protein binding, mice; assay type: in vitro ADME; conditions: mouse
[6] = male, Sprague-Dawley, rat, plasma, intravenous 3 mg/kg
[7] = male, Sprague-Dawley, rat, plasma, oral 3 mg/kg
[8] = male, Sprague-Dawley, rat, plasma, oral 10 mg/kg
[9] = male, Sprague-Dawley, rat, plasma, oral 30 mg/kg

## COc1cc2nccc(Oc3ccc(NC(=O)NC4CC4)c(Cl)c3)c2cc1C(N)=O [lenvatinib, Lenvatinib]
[1]
  CLint scaled: 75.1 mL/min/kg
[2]; calculated from CLtot (iv), blood-to-plasma partition, hepatic blood flow, and bioavailability
  availability in the intestine: > 0.7
[2]; mouse, dog, monkey, plasma, the other three species (mice, dogs, monkeys), intravenous 3 mg/kg, read-out: CLtot
  clearance: 3.97 to 6.13 mL/min/kg
[2]; mouse, dog, monkey, plasma, oral, 3 mg/kg, mice, dogs, monkeys, read-out: average bioavailability in the four species
  bioavailability: 70%
[2]; mouse, dog, monkey, plasma, po, 3 mg/kg, range over mice, dogs, and monkeys, read-out: oral bioavailability
  bioavailability: 64.4 to 78.4%
[2]; mouse, dog, monkey, plasma, po, range over mice, dogs, and monkeys, read-out: oral bioavailability
  bioavailability: 64 to 78%
[3]; estimated from oral PK, Fa and Fg assumed unity, BW 0.2 kg
  CLint (hepatic intrinsic clearance): 1440 mL/h
[3]; [6]
  AUC(0-inf): 30100 ± 1330 ng·h/mL
  MRT: 3.93 ± 0.19 h
[3]; male, Sprague-Dawley, rat, plasma, intravenous 3 mg/kg, extrapolated
  C0: 16000 ± 416 ng/mL
[3]; male, Sprague-Dawley, rat, plasma, intravenous 3 mg/kg, read-out: CLtot (converted)
  clearance: 1.67 mL/min/kg
[3]; male, Sprague-Dawley, rat, plasma, intravenous 3 mg/kg, read-out: Vdss
  Vd: 0.392 ± 0.0099 L/kg
[3]; male, Sprague-Dawley, rat, plasma, iv, 3 mg/kg, intravenous 3 mg/kg
  half-life: 3.65 ± 0.09 h
[3]; [7]
  AUC(0-inf): 20700 ± 3120 ng·h/mL
  Cmax: 6170 ± 1370 ng/mL
  MRT: 4.46 ± 0.16 h
  Tmax: 0.5 h
[3]; male, Sprague-Dawley, rat, plasma, oral 3 mg/kg vs intravenous 3 mg/kg, read-out: F (oral bioavailability)
  bioavailability: 68.7%
[3]; [8]
  AUC(0-inf): 78300 ± 6580 ng·h/mL
  Cmax: 16600 ± 1240 ng/mL
  MRT: 6.31 ± 0.53 h
  Tmax: 0.5 h
[3]; [9]
  AUC(0-inf): 146000 ± 18500 ng·h/mL
  Cmax: 23200 ± 4770 ng/mL
  MRT: 6.86 ± 1.02 h
  Tmax: 1 h
[3]; male, Sprague-Dawley, rat, plasma, po, 3 mg/kg, oral 3 mg/kg
  half-life: 3.61 ± 0.21 h
[3]; male, Sprague-Dawley, rat, plasma, po, 10 mg/kg, oral 10 mg/kg
  half-life: 5.27 ± 0.33 h
[3]; male, Sprague-Dawley, rat, plasma, po, 30 mg/kg, across 3, 10, and 30 mg/kg
  half-life: 3.61 to 5.27 h
[3]; male, Sprague-Dawley, rat, plasma, po, 30 mg/kg, oral 30 mg/kg
  half-life: 4.95 ± 0.77 h
Plasma protein [4]
  fraction unbound: 0.0172
Plasma protein [5]; plasma, mice, 0.3–30 μg/mL, read-out: average fp (unbound fraction in plasma)
  fraction unbound: 0.033
Plasma protein [5]; mice plasma, 0.3 μg/mL
  fraction unbound at 0.3 μg/mL: 0.031
